Data from patent EP4506341A1, “TISSUE REGENERATION APPROACHES” (ZeCardio Therapeutics SL, priority 2023, dated 2025).
pEC50: −log10 of the molar value.

Tests used:
Cdk1 = test: Real time PCR of proliferation marker gene Cdk1 in H9C2 cells; type: cell-based, rat; conditions: 100 nM in H9C2 cells; for Cdk1 mRNA expression increase: normalized to vehicle-treated cells
Method: (§1) In order to evaluate 1) efficiency of Tob1 knockdown in MCF-7 and H9C2 cells and 2) expression levels of proliferation markers (Pcna, Cdk1 and Ccnb1) in H9C2 cells treated with the compounds of the invention, H9C2 cells were harvested by trypsinization and centrifuged at 300 x g for 5 min. Total mRNA was isolated using the Maxwell 16 LEV simplyRNA Cells Kit or Tissue Kit (Promega, Madison, WI) following the manufacturer's instructions. Nanodrop ND-1000 Spectrophotometer (Thermo Fisher Scientific, Waltham, MA) was used to quantity the amount of RNA extracted. cDNA synthesis was performed from 300 ng of total RNA with the SuperScript IV First-Strand Synthesis System (Thermo Fisher Scientific, Waltham, MA).
(§2) Real-time PCR was conducted using LightCycler 480 SYBR Green I Master on a LightCycler 480 thermal cycler (Roche, Basel, Switzerland). The expression levels of the indicated genes were calculated by the conventional 2^-DDCt method, with normalization to housekeeping gene glyceraldehyde-3-phosphate dehydrogenase (GAPDH).

H9C2 cells = test: MTT proliferation assay in Tob1 expressing (control) H9C2 cells; type: cell-based, rat; conditions: for H9C2 % Proliferation (normalized to control): 4 microMolar, MTT assay after 144 hours, increase above control values; for EC50 in H9C2 cells lower than EC50 in Tob1 KO H9C2 cells (selectivity for Tob1): H9C2 control vs Tob1 KO H9C2 cells, MTT; for pEC50: Rattus norvegicus, H9C2 control cells, proliferation by MTT, 144 hours, 1,28 nM to 20 µM
Method: (§3) 3-(4,5-dimethylthiazol-2-yl)-2,5-diphenyltetrazolium bromide, MTT (Sigma, M5655-500MG) assay was used as a surrogate to evaluate cell number and cell proliferation in H9C2 and MCF-7 cells. MTT is a colorimetric assay that measures cell metabolic activity in viable cells, resulting from the activity of mitochondrial dehydrogenases which cleave the tetrazolium ring of the yellow tetrazolium salt MTT, yielding formazan crystals. The protocol was designed to align Tob1 peak decrease in mRNA expression levels (48-96 hours post-transfection) with the period of exponential growth of the cells (24-72 hours post-replating).
(§4) MCF-7 cells and H9C2 cells were seeded at 100,000 cells/well in 24-well in DMEM + 10% FBS plates to reach 80-90% at time of transfection. MCF-7 and H9C2 cells were transfected 24 hours post-plating with Silencer® Select siRNAs to knock down Tob1. 48 hours post-transfection, cells were lifted and plated at 10000 (MCF-7) and 8000 cells/well (H9C2) in 96-well plates and grown for 144 hours. At day 6 (144 hours), 0,5 mg/ml MTT was added and incubated for 3 hours, producing formazan crystals that were solubilized with SDS 20%+ HCl 0.02N. 24 hours later, absorbance was measured at 590 nm with the spectrophotometer FLUOstar Omega plate reader (BMG LabTech).
(§5) Both Tob1 expressing and Tob1 knockout H9C2 cells were seeded at 8000 cells/well in 96-well plates. 48 hours later, cells were treated with 1.28 nM; 6.4 nM; 32 nM, 160nM, 800 nM, 4 µM and 20 µM ZXR-807, ZXR-810; ZXR-081 and ZXR-090 and cell proliferation was measured 144 hours post-treatment using the MTT assay as described above.
Once lead compounds were selected, their efficacy, potency and selectivity at promoting proliferative responses, were evaluated in vitro in rat cardiomyoblasts (H9C2 cells) using MTT assay. H9C2 cells were treated with vehicle 0,3% DMSO and increasing concentrations of Tob1 inhibitors: ZXR-807, ZXR-810, ZXR-081 and ZXR-090, (1,28 nM to 20 µM), followed by the assessment of proliferation, using the MTT assay, after cells were left to grow for 144 hours (6 Days).

hiPSC cardiomyocytes [1] = test: CellTiter-Glo proliferation assay in hiPSC-CMs; type: cell-based, Human; conditions: 8nM
Method: Human Induced pluripotent stem-cell derived (iPS-CMs) cardiomyocytes (iCell® Cardiomyocytes, Cat. No. 11713) were purchased from FUJIFILM Cellular Dynamics. hiPSC Cardiomyocytes were seeded into 96 well plates coated with 0,1% gelatin (STEMCELL tech, 07903) with iCell Cardiomyocytes plating medium (Fujifilm, M1001). After 48 hours, the medium was changed to iCell Cardiomyocytes maintenance medium (Fujifilm, M1003) and cells were cultured for 2 weeks with media replacement every 48-72 hours. Cells were maintained in a humidified incubator (Thermo Scientific,HERACELL 150i) in a 95% air 5% CO2 environment at 37 °C
CellTitler-Glo® (Promega, G7570) was used to measure the activity of the compounds of the invention in triggering proliferation in hiPSC-CMs. The CellTiter-Glo® Luminescent Cell Viability Assay, similar to the MTT assay but with higher sensitivity, determines the number of metabolically active and viable cells, and is based on the quantification of ATP levels in the cells.
hiPSC-CMs were seeded at 7000 cells/well in 96-well plates and treated with the compounds of the invention at 8; 40 and 200nM in a 0.3% DMSO containing iCell Cardiomyocyte medium and a control treatment or vehicle with 0.3% DMSO in iCell cardiomyocyte medium. hiPSC-CMs proliferation was measured after 144h (6 days) , and 336 (14 days) of treatment. At each time point, 100 µL of CellTiter Glo (ratio 1:1 CellTiter Glo: cell culture medium ) was added to each well containing 100 µL iCell Cardiomyocyte medium, following the manufacturer's instructions. Luminescence was read in Varioskan (Thermo Fisher Scientific), 30 minutes after adding the reagent.

Tob1 KO H9C2 cells = test: MTT proliferation assay in Tob1 knockout H9C2 cells; type: cell-based; conditions: Rattus norvegicus; Tob1 depleted (KO) H9C2 cells; proliferation by MTT, 144 hours
Method: 100.000 H9C2 cells were plated in a 24 well plate day before transfection with lipofectamine CRISPRMAX™ (Thermofisher, CMAX00001), to obtain a 70% of confluence. The CRISPRMAX™ assay was performed following the manufacturer's instructions. Briefly Cas9 nuclease/gRNA RNP complexes were prepared by combining the following components , 3,85 µ! of 2 µM Alt-R S.p. Cas9 Nuclease v3 (1081059, IDT)1; 2,25 µ! of 2 µM sgRNAs (Tob1 sgRNA1: […] (SEQ ID NO: 3) and Tob1 sgRNA2: […] (SEQ ID NO: 4), negative control: GCACUACCAGAGCUAA (SEQ ID NO: 5), Synthego), 2,5 µ! Cas9 plus reagent in 16,65 µl Opti-MEM™(Gibco™; Life Technologies, Grand Island, NY, USA) in tube 1 and 1,5 µl lipofectamine CRISPRMAX™ in 25 µ! in Opti-MEM™ in tube 2. The Cas9/sgRNA ribonucleoprotein (RNP) complex was obtained by incubating the mix of tub1 and 2 for 10 minutes at room temperature. 50 µL of the RNP complex was added to cells in 450 µL of fresh high glucose DMEM (ATCC, 30-2002), supplemented with 10 % FBS and without antibiotics and cells were incubated with the RNP complex for 48 h at 37 °C.
as §3
as §4, with “At day 6 (144 hours), 0,5 mg/ml MTT was added and incubated for 3 hours, producing formazan crystals that were solubilized with SDS 20%+ HCl 0.02N.” left out
as §5
Tob1 inhibitors selectivity was assessed by comparing dose-responses of ZXR-807, ZXR-810, ZXR-081 and ZXR-090 in H9C2 control cells and H9C2 Tob1 KO cells where Tob1 was depleted by CRISPR/Cas9 technology. […]

Ccnb1 = test: Real time PCR of proliferation marker gene Ccnb1 in H9C2 cells; type: cell-based, rat; conditions: 100 nM in H9C2 cells
Method: as §1, §2

Ki67 = test: Nuclear Ki67 immunostaining in hiPSC-CMs after migration assay; type: cell-based, Human; conditions: 8 nM, 144 hrs, hiPSC cardiomyocytes
Method: (§6) hiPSC-CMs cells were seeded at 25,000 cells per well in 96 wells plates. 168 hours after seeding, cells were scraped with a 200 µL tip and treated with 8, 40 and 200nM ZXR-807, ZXR-810, ZXR-081 and ZXR-090. Plates were imaged with an inverted microscope (Leica, DMI6000B) right after generating the wound (0 h) and 144 hours post-scraping.
Following the migration assay, the medium was aspirated from the 96-well plates, and cells were washed twice with phosphate buffered saline solution (PBS) 1x (Fisher bioreagents, BP399-4). Cells were fixed with 4% paraformaldehyde (Sigma, 158127) for 10 minutes at room temperature and washed 3 times with PBS 1x. Cells were permeabilized with Triton™ X-100, 0.03% (Merck, T8787) and blocked with 0.5% Goat serum (ThermoFisher, 16210064) in PBS 1x, during 1 hour at room temperature. The primary antibodies Ki67 rabbit antibody 1/100 (Santacruz, sc-23900), and cardiac Troponin (cTnT mouse antibody 1/100 (ThermoFisher, MA5-12960) were diluted in the following buffer: Triton™ X-100 0.03% and 1% Bovine serum albumin (BSA) 10% (nzytech, MB04602) and PBS 1x. hiPSC-CMs were incubated with the primary antibodies overnight at 4°C, washed three times with PBS 1x and incubated with the secondary antibodies goat anti-mouse or anti -rabbit coupled to Alexa fluorescent dyes (company). DAPI 1/1000 (Merck, D9542-5MG) was incubated for 20 min at room temperature to visualize nuclei. Cells were washed out 3x with PBS and kept in PBS at 4°C.
Preparations were examined on a fluorescent inverted microscope Leica, DMI6000B using 20x dry objectives from Leica. Images were analyzed with the open source image processing package Fiji to quantify Nuclear Ki67 fluorescent intensity and cellular cardiac troponin T (cTnT) normalized to the number of nuclei in the field of view

hiPSC cardiomyocytes [2] = test: Cell migration (wound healing) assay in hiPSC-CMs; type: cell-based, Human; conditions: 8 nM, 144 hours
Method: as §6
All images were analyzed using the Fiji software (Schindelin et al., 2012) and the amount of cellular migration was determined by calculating the wound area at 0h and 28 hours or 144 hours and normalized to control vehicle-treated cells (0,3% DMSO).

SMILES | transcriptional activation of Cdk1 (in words) (Cdk1) | H9C2 % Proliferation (normalized to control) (H9C2 cells) | EC50 in H9C2 cells lower than EC50 in Tob1 KO H9C2 cells (selectivity for Tob1) (H9C2 cells) | increase of proliferation rate of hiPSC cardiomyocytes (hiPSC cardiomyocytes [1]; 144 hours (6 days)) | increase of proliferation rate of hiPSC cardiomyocytes (hiPSC cardiomyocytes [1]; 336 hours (14 days)) | pEC50 (Tob1 KO H9C2 cells) | Ccnb1 expression (in words) (Ccnb1) | nuclear Ki67 expression away from the scratch (Ki67) | cell migration of hiPSC-CMs (in words) (hiPSC cardiomyocytes [2]) | pEC50 (H9C2 cells) | Cdk1 mRNA expression increase (Cdk1) | time course of effect on proliferation increase (in words) (hiPSC cardiomyocytes [1]; peaking at 144 hours and disappearing by 336 hours) | nuclear Ki67 signal intensity close to the scratch (Ki67)
N[C@H]1C[C@@H](C(=O)N2CCSCC2)[C@H](c2ccc(Cl)cc2)C1 (relative stereo) [ZXR-807, rel-[(1R,2R,4R)-4-amino-2-(4-chlorophenyl)cyclopentyl]-thiomorpholino-methanone] | promote the transcriptional activation | 27,4% | < 60,000 | 20-28% | 40% | 7.08 | more moderately increased | increased | activate cell migration |  |  |  | 
CC(C)N(C)C(=O)[C@@H]1C[C@H](N)C[C@H]1c1ccc(Cl)cc1 (relative stereo) [ZXR-810, rel(1R,2R,4R)-4-amino-2-(4-chlorophenyl)-N-isopropyl-N-methyl-cyclopentanecarboxamide] | promote the transcriptional activation | 26.5% | 200-300 | 20-28% | 40% | 7.20 | more moderately increased | increased | activate cell migration | 9.21 |  |  | 
Cl.N[C@H]1C[C@@H](C(=O)N2CCOCC2)[C@H](c2ccc(Cl)cc2)C1 (relative stereo) [ZXR-081, rel-[(1R,2R,4R)-4-amino-2-(4-chlorophenyl)cyclopentyl]-morpholino-methanone hydrochloride] |  | 36,6% | < 60,000 | 20-28% |  | 6.75 |  | increased | activate cell migration |  | about 3 fold | transitory effect | significantly increased
CC(=O)N[C@H]1C[C@@H](C(=O)N2CCOCC2)[C@H](c2ccc(Cl)cc2)C1 (relative stereo) [ZXR-090, rel-N-[(1R,3R,4R)-3-(4-chlorophenyl)-4-(morpholine-4-carbonyl)cyclopentyl]acetamide] |  | 26,6% | 200-300 |  |  | 7.20 | more moderately increased |  | activate cell migration | 9.89 | about 3 fold |  | 
